Reference: patent US6858640B2, “Tricyclic indole compounds having affinity for serotonin receptor” (Shionogi & Co., Ltd., priority 2000, dated 2005)
Where two headings read alike, the source gives them in different places.

Assays:
5HT1A = target: T1, 5HT1A (Rattus norvegicus, UniProt P19327); assay: radioligand binding to serotonin receptor, cell membrane sample, Ki by Cheng-Prusoff
T1 construct: prepared from brain of rats or HEK293 cells, which expressed the receptor; from tissue; host or cells: rat brain membranes
T1 sequence (P19327 1-422): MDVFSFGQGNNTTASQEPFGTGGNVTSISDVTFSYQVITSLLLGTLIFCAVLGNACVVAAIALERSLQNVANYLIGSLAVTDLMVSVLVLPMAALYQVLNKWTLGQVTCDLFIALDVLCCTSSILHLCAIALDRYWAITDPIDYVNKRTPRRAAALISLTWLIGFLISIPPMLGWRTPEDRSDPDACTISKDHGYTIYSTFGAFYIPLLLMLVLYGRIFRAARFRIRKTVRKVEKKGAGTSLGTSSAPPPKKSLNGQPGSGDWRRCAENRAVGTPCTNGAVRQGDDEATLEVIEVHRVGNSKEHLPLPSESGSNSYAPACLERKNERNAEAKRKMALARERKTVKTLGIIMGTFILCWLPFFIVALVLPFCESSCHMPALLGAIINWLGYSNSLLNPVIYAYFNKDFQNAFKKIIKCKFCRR
Method: (§1) A mixture of radioactive ligands and some cardinal numbers of test compounds was incubated with a sample of cell membrane, which was prepared from brain of rats or HEK293 cells, which expressed the receptor, under the following conditions. Then, the sample was filtered by suction on a Whatman GF/C. Radioactivity on the filter was encountered by the use of a liquid scintillation counter. 50% Inhibitory concentration values (IC50 values) of each selective binding were calculated for test compounds and the Ki value was obtained by applying an equation of Cheng-Prusoff [Biochem. Pharmacol. 22 (1973) 3099-3108] Ki=IC50/(1+[L]/Kd).

5HT7 = 5HT7 (Homo sapiens, UniProt P34969); assay: radioligand binding to serotonin receptor, cell membrane sample, Ki by Cheng-Prusoff
Method: as §1

5HT6 = target: T2, 5HT6 (Homo sapiens, UniProt P50406); assay: as above
T2 construct: expressed in transfected cells; host or cells: HEK293
Method: as §1

[1] = rat hippocampus membranes, 1 nM [3H] 8-OH-DPAT, 25° C. 30 min, read-out: Ki value (nM) ±SE 5-HT1A
[2] = Human 5-HT7 (HEK293), 0.5 nM [3H] 5CT, 25° C. 120 min, read-out: Ki value (nM) ±SE 5-HT7

T2 sequence (P50406 whole entry, species assumed): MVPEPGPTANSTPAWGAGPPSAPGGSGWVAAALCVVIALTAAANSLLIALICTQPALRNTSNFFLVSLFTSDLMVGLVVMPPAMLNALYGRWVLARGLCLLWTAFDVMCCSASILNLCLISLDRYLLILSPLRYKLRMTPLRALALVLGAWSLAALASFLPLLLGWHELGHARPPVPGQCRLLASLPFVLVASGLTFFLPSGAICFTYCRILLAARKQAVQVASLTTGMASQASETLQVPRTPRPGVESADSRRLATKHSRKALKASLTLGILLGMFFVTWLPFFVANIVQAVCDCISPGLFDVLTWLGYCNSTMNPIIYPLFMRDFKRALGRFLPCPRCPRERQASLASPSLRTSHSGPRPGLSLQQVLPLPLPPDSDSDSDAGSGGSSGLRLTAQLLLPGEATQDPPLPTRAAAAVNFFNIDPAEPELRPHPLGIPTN
Sequence of 5HT7 (P34969 whole entry, species assumed): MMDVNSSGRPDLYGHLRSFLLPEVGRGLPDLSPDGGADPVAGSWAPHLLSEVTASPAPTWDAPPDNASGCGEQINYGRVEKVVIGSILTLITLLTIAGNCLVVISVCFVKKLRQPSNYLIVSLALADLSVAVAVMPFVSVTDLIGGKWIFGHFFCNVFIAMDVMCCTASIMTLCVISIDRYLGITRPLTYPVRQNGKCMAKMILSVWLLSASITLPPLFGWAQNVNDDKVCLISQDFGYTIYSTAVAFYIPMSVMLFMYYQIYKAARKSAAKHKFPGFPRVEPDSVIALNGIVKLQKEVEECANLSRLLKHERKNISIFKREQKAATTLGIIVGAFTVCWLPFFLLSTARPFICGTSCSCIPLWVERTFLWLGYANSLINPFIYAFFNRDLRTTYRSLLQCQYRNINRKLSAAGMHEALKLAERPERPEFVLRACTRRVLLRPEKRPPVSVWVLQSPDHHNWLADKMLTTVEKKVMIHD

## c1cc2c3c(c[nH]c3c1)CC(NC1CC1)CO2 (stereo not drawn) [Compound 19-19]
5HT1A
  Ki: 3.8 nM
other
  melting point: 130 to 131 °C

## CCCNC1COc2cccc3[nH]cc(c23)C1 (stereo not drawn) [Compound 19-3]
5HT1A
  Ki: 5.7 nM
5HT7
  Ki: 46 nM
other
  melting point: 137 to 139 °C

## O=S(=O)(c1ccccc1)n1cc2c3c(cccc31)OCC(N1CCCC1)C2 (stereo not drawn) [Compound 36-1, 2-Benzenesulfonyl-8-pyrrolidin-1-yl-2,7,8,9-tetrahydro-6-oxa-2-azabenzo[cd]azulene]
5HT1A; [1]
  Ki: 29 nM
5HT6
  Ki: 65 nM

## CNC1COc2cccc3[nH]cc(c23)C1 (stereo not drawn) [Compound 19-2]
5HT1A
  Ki: 23 nM
5HT6
  Ki: 97 nM

## C=Cc1ccc2[nH]cc3c2c1OCC(N(C)C)C3 (stereo not drawn) [Compound 40, Dimethyl-(5-vinyl-2,7,8,9-tetrahydro-6-oxa-2-azabenzo[cd]azulen-8-yl)amine]
5HT1A; [1]
  Ki: 15 nM
5HT6
  Ki: 32 nM
5HT7; [2]
  Ki: 74 nM

## CN(C)C1COc2cccc3[nH]c(Br)c(c23)C1 (stereo not drawn) [Compound 21, (1-Bromo-2,7,8,9-tetrahydro-6-oxa-2-azabenzo[cd]azulen-8-yl)dimethylamine]
5HT1A; [1]
  Ki: 14 nM
other
  melting point: 170 to 172 °C

## CSc1ccc2[nH]cc3c2c1OCC(N(C)C)C3 (stereo not drawn) [Compound 46-3]
5HT1A
  Ki: 18 nM
other
  melting point: 112 to 113 °C

## CCc1ccc2[nH]cc3c2c1OCC(N(C)C)C3 (stereo not drawn) [Compound 41, (5-Ethyl-2,7,8,9-tetrahydro-6-oxa-2-azabenzo[cd]azulen-8-yl)dimethylamine]
5HT1A; [1]
  Ki: 57 nM

## CN(C)C1COc2cccc3c2c(cn3S(=O)(=O)c2ccc(C(F)(F)F)cc2)C1 (stereo not drawn) [Compound 20-10]
5HT1A
  Ki: 95 nM
5HT6
  Ki: 45 nM

## CCCN(CCC)C1COc2cccc3[nH]cc(c23)C1 (stereo not drawn) [Compound 19-5]
5HT1A
  Ki: 10 nM
other
  melting point: 60 to 61 °C

## CCN(CC)C1COc2cccc3c2c(cn3S(=O)(=O)c2ccccc2)C1 (stereo not drawn) [Compound 36-3]
5HT1A; [1]
  Ki: 58 nM
5HT6
  Ki: 4.2 nM
other
  melting point: 106 to 108 °C

## CNC1COc2c(Br)ccc3[nH]cc(c23)C1 (stereo not drawn) [Compound 19-15]
5HT1A
  Ki: 7.7 nM
5HT6
  Ki: 4.6 nM
5HT7
  Ki: 16 nM

## CN(C)C1COc2cccc3c2c(cn3S(=O)(=O)c2cccs2)C1 (stereo not drawn) [Compound 20-9]
5HT1A
  Ki: 86 nM
5HT6
  Ki: 78 nM

## CN(C)C1CC(=O)c2cccc3[nH]cc(c23)C1 (stereo not drawn) [Compound 19-1, Dimethyl-(2,7,8,9-tetrahydro-6-oxo-2-azabenzo[cd]azulen-8-yl)amine]
5HT1A; [1]
  Ki: 81 nM

## CN(C)C1COc2c(-c3ccccc3)ccc3[nH]cc(c23)C1 (stereo not drawn) [Compound 38, Dimethyl-(5-phenyl-2,7,8,9-tetrahydro-6-oxa-2-azabenzo[cd]azulen-8-yl)amine]
5HT1A; [1]
  Ki: 83 nM
5HT7; [2]
  Ki: 22 nM
other
  melting point: 168 to 170 °C

## CN(C)C1COc2c(Br)ccc3[nH]cc(c23)C1 (stereo not drawn) [Compound 19-16]
5HT1A
  Ki: 58 nM
5HT6
  Ki: 62 nM
5HT7
  Ki: 86 nM
other
  melting point: 142 to 143 °C

## c1cc2c3c(c[nH]c3c1)CC(N1CCCC1)CO2 (stereo not drawn) [Compound 19-10]
5HT1A
  Ki: 2.5 nM
other
  melting point: 137 to 139 °C

## COC(=O)/C=C/c1ccc2[nH]cc3c2c1OCC(N(C)C)C3 (stereo not drawn) [Compound 39, (E)-3-(8-Dimethylamino-2,7,8,9-tetrahydro-6-oxa-2-azabenzo[cd]azulen-5-yl)acrylic acid methyl ester]
5HT1A; [1]
  Ki: 27 nM
5HT7; [2]
  Ki: 73 nM

## NC1COc2cccc3[nH]cc(c23)C1 (stereo not drawn) [Compound 8-1, 2,7,8,9-Tetrahydro-6-oxa-2-azabenzo[c,d]azulen-8-ylamine]
5HT1A; [1]
  Ki: 36 nM
other
  melting point: 172 to 173 °C

## C=CCNC1COc2cccc3[nH]cc(c23)C1 (stereo not drawn) [Compound 19-7]
5HT1A
  Ki: 19 nM
other
  melting point: 112 to 113 °C
